The source of these data is patent US11124486B2, “6-membered heterocyclic derivatives and pharmaceutical composition comprising the same” (Shionogi & Co., Ltd., priority 2015, dated 2021).

The target of the first assay is human P2X7 receptor (Homo sapiens, UniProt Q99572, R270H/Y155H). Description: Evaluation of a human P2X7 receptor inhibitory activity (Yo-Pro uptake, BzATP stimulation, FLIPR TETRA). It counts as cell-based. The note with it: 1321N1 cells expressing human P2X7 receptor; BzATP stimulation, Yo-Pro uptake; read-out: IC50 (antagonistic activity for the human P2X7 receptor). The procedure:
Test Example 1 Evaluation of a Human P2X7 Receptor Inhibitory Activity
Stably expressing cell line (1321N1 cell transfected with the human P2X7 receptor gene (GenBank accession number NM_002502.5 including T606C and G952A SNP)) was used. The cells were seeded in a 384-well microtiter plate at a concentration of 8000 cells/well and cultured in the medium (10% fetal bovine serum, 25 mM HEPES, 1% penicillin and streptomycin in DMEM) for one day at 37° C. under 5% carbon dioxide atmosphere. After replacing with 20 μL of the HBSS buffer (20 mM HEPES, 55.6 mM D-glucose, 1×HBSS(−), pH7.4-7.5). 16 μL of 17.3 μM Yo-Pro solution in the HBSS buffer was added. The plate was placed in high-throughput cellular screening system FLIPR TETRA (Molecullar Devices, LLC.) and 15 μL of 130 μM BzATP solution in the HBSS buffer was added. Measurement, of fluorescence intensity by FLIPR TETRA was started. After eight minutes, 15 μL of DMSO solutions containing different concentrations of the compound of the present invention as prepared by dilution with the HBSS buffer were dispensed to each well through the built-in automatic dispenser, and the measurement of fluorescence intensity was continued for 20 minutes. […] Changing values of fluorescence intensity by the compound of the present invention were calculated by difference between maximum and minimum fluorescence intensity for 20 minutes. Inhibition ratios (%) were calculated from the following equation:
[formula] IC50 was calculated using Logistic approximation.
The term IC50 denotes the concentration that inhibits the measured activity by half. Take `COc1cn(Cc2ccc(F)c(Cl)c2)c(Nc2cc3sc(C)nc3cc2C)cc1=O` [Compound I-0033]: the IC50 was 49 nM.
Same read-out and setting: as for `COc1cn(Cc2ccc(F)c(Cl)c2)c(Oc2cc(C)c(C)cc2C)nc1=O` [Compound I-0358], the figure is 160 nM; as for `COc1cn(Cc2cc(F)cc(F)c2)c(NCc2cccc(Cl)c2C)nc1=O` [Compound I-0452], 110 nM.

The assay is the same for the next values; noted with them: 1321N1 cells expressing human P2X7 receptor; BzATP stimulation, Yo-Pro uptake; read-out: IC50 (antagonistic activity for the human P2X7 receptor), class.
As for `COc1cc(C)c(Nc2nc(=O)c(OC)cn2Cc2ccc(F)c(Cl)c2)cc1Cl` [Compound I-0465], the IC50 was less than 10 nM.
The same measure, in the same setting: as for `COc1cc(C)c(Nc2nc(=O)c(OC)cn2Cc2cc(F)cc(Cl)c2)cc1C` [Compound I-0446], the figure is less than 10 nM; as for `COc1cn(Cc2ccccc2)c(Nc2cc(S(C)(=O)=O)c(C)cc2C)nc1=O` [Compound I-0448], 10 to 100 nM.
Same read-out and setting: the value for `Cc1c(Cl)cccc1Nc1nc(=O)c(OOC(C)(C)C)cn1Cc1ccccc1` [Compound I-0111] was 100 to 500 nM; that for `COc1cn(Cc2cc(F)cc(F)c2)c(Nc2ccc(C)cc2C)nc1=O` [Compound I-0463] was less than 10 nM; that for `COc1cc(C)c(Nc2nc(=O)c(OC)cn2Cc2cccc(F)c2)cc1C` [Compound I-0249] was less than 10 nM.
The same measure, in the same setting: the value for `COc1cn(Cc2cccc(OC(F)F)c2)c(Nc2cccc(Cl)c2C)nc1=O` [Compound I-0422] was 500 to 1000 nM.
For `CCOc1ccc(C)c(Nc2nc(=O)c(OC)cn2Cc2ccc(F)c(F)c2)c1` [Compound I-0457], the IC50 is less than 10 nM.
`COc1cn(Cc2ccc(F)c(F)c2)c(Nc2ccc(C)cc2C)nc1=O` [Compound I-0461]: the IC50 was less than 10 nM.
`COc1cccc(Nc2nc(=O)c(OC)cn2Cc2ccc(F)c(F)c2)c1C` [Compound I-0477]: the IC50 was less than 10 nM.
Same read-out and setting: as for `COc1cn(Cc2ccccc2)c(Oc2cc(C)c(C)cc2C)nc1=O` [Compound I-0357], the figure is 500 to 1000 nM; as for `COc1cccc(Nc2nc(=O)c(OC)cn2Cc2cccc(Cl)c2)c1C` [Compound I-0476], less than 10 nM; as for `COc1cn(Cc2cc(F)cc(Cl)c2)c(Nc2cc(OCC(F)(F)F)ccc2C)nc1=O` [Compound I-0498], 100 to 500 nM.
Turning to `CCc1cc(OC)ccc1Nc1nc(=O)c(OC)cn1Cc1cc(F)cc(Cl)c1` [Compound I-0447], the IC50 is less than 10 nM.
On the same count and under the same terms, the value for `CCOc1ccc(C)c(Nc2nc(=O)c(OC)cn2Cc2ccc(F)c(Cl)c2)c1` [Compound I-0459] was less than 10 nM.
On the same count and under the same terms, the value for `CCOc1ccc(C)c(Nc2nc(=O)c(OC)cn2Cc2cc(F)cc(Cl)c2)c1` [Compound I-0460] was 10 to 100 nM.
Still for that read-out and setting: the value for `COc1cccc(Nc2nc(=O)c(OC)cn2Cc2ccc(F)c(Cl)c2)c1C` [Compound I-0478] was less than 10 nM.
Regarding `COc1cn(Cc2cc(F)cc(Cl)c2)c(Nc2ccc(C)cc2C)nc1=O` [Compound I-0462], the IC50 fell in the range of 10 to 100 nM.
Same read-out and setting: the value for `COc1cc(Nc2nc(=O)c(OC)cn2Cc2cccc(F)c2)c(C)cc1Cl` [Compound I-0474] was less than 10 nM.
On to `COc1cc(Nc2nc(=O)c(OC)cn2Cc2ccc(F)cc2)c(C)cc1Cl` [Compound I-0475], for which the concentration for half-maximal inhibition (IC50) was less than 10 nM.
Same read-out and setting: as for `CCc1ccc(F)cc1Nc1nc(=O)c(OC)cn1Cc1ccccc1` [Compound I-0450], the figure is 10 to 100 nM; as for `COc1cn(Cc2ccccc2)c(Nc2cccc(C)c2Cl)nc1=O` [Compound I-0112], 10 to 100 nM; as for `CCOc1ccc(C)c(Nc2nc(=O)c(OC)cn2Cc2cc(F)cc(F)c2)c1` [Compound I-0458], 10 to 100 nM.
Still for that read-out and setting: as for `COc1cn(Cc2ccc(F)c(Cl)c2)c(Nc2cc(S(C)(=O)=O)c(C)cc2C)nc1=O` [Compound I-0449], the figure is less than 10 nM.
Turning to `COc1cc(C)c(Nc2nc(=O)c(OC)cn2Cc2ccccc2)cc1Cl` [Compound I-0464], the IC50 was less than 10 nM.
Still for that read-out and setting: the value for `COc1cn(Cc2cccc(Cl)c2)c(Nc2cccc(C(F)(F)F)c2C)nc1=O` [Compound I-0466] was 10 to 100 nM.

Staying with this assay, now noted: antagonistic activity for the human P2X7 receptor; 1321N1 cells expressing human P2X7, BzATP-stimulated Yo-Pro uptake; read-out: IC50.
Consider `COc1cn(Cc2cc(F)c(F)c(F)c2)c(Cc2cccc3[nH]c(=O)ccc23)nc1=O` [Compound I-0602], for which the IC50 fell in the range of 100 to 500 nM.
Same read-out and setting: as for `Cc1cc(F)c(-c2cccn(C)c2=O)cc1Nc1nc(=O)c(F)cn1Cc1cc(F)c(F)c(F)c1` [Compound I-1222], the figure is less than 10 nM; as for `COc1cn(Cc2ccccc2)c(Nc2ccc(C)cc2F)nc1=O` [Compound I-0762], 100 to 500 nM.
Still for that read-out and setting: as for `COc1ccc(NC2=NC(=O)CC(C)N2Cc2cc(F)c(F)c(F)c2)c(C)c1` (stereo not drawn) [Compound I-1167], the figure is less than 10 nM.
Still for that read-out and setting: as for `COC1CN(Cc2ccc(F)c(F)c2)C(Nc2cc(S(C)(=O)=O)c(C)cc2C)=NC1=O` (stereo not drawn) [Compound I-0605], the figure is 10 to 100 nM.
With `COc1cc(C)c(Nc2nc(=O)cc(C)n2Cc2cc(F)c(F)c(F)c2)cc1OC` [Compound I-1153], the IC50 was less than 10 nM.
Same read-out and setting: the value for `COc1cn(Cc2ccc(F)c(Cl)c2)c(Nc2c(C)cc3c(c2C)COC3)nc1=O` [Compound I-0907] was less than 10 nM.
